The record followed here is patent US12486302B2, “Somatostatin receptor antagonist compounds and methods of using the same” (CDRD VENTURES INC., priority 2016, dated 2025).

pIC50: −log10 of the molar value. *1 amine or outer side, *2 acyl side, *3 side chain or, on linkers, in order; H or OH if unused. Where a SMILES comes first, the peptide text is derived from it. Bridges are numbered along the chain shown (N, C = ends). Side-chain parts run from the residue outwards. [ ]: non-standard residue; d: D form. The star is where a group is joined. ξ: configuration not given here. dPhe(4-CONH2) = NC(=O)c1ccc(C[C@@H](N)C(=O)O)cc1; dPhe(4-NH2) = Nc1ccc(C[C@@H](N)C(=O)O)cc1; Phe(4-Cl) = N[C@@H](Cc1ccc(Cl)cc1)C(=O)O; Lys(Me2) = CN(C)CCCC[C@H](N)C(=O)O; NH(4-MeO-phenyl) = COc1ccc(N*)cc1; dCit = NC(=O)NCCC[C@@H](N)C(=O)O; Lys(Me) = CNCCCC[C@H](N)C(=O)O; Tle = CC(C)(C)[C@H](N)C(=O)O; Nicotinoyl = O=C(c1cccnc1)*; ξY = NC(Cc1ccc(O)cc1)C(=O)O; ξF = NC(Cc1ccccc1)C(=O)O; CO = O=C([*:1])[*:2]; Bz = O=C(c1ccccc1)*; NHPh = c1ccc(N*)cc1

somatostatin type 2 (SSTR2) receptors, sequence (P30874 whole entry, the tested form may be a part): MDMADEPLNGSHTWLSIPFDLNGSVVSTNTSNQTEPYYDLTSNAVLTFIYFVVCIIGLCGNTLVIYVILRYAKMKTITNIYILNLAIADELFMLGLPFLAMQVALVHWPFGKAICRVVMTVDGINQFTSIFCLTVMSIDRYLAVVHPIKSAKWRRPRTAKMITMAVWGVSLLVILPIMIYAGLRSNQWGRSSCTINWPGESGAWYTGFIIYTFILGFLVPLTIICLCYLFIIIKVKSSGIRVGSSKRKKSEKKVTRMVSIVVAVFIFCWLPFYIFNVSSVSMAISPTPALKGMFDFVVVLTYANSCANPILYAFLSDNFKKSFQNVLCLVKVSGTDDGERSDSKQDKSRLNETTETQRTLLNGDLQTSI

The target in the assay is somatostatin type 2 (SSTR2) receptors (Homo sapiens, UniProt P30874). Description: PathHunter β-Arrestin assay, antagonist mode, SSTR2. Type of assay: cell-based. To be noted: agonist challenge at EC80. The procedure:
The PathHunter® β-Arrestin assay monitors the activation of a GPCR in a homogenous, non-imaging assay format using a technology developed by DiscoveRx called Enzyme Fragment Complementation (EFC) with β-galactosidase (β-Gal) as the functional reporter. […] EA is fused to β-Arrestin and […] is fused to the GPCR of interest. When the GPCR is activated and β-Arrestin is recruited to the receptor, ED and EA complementation occurs, restoring β-Gal activity which is measured using chemiluminescent PathHunter® Detection Reagents. For antagonist determination, cells were pre-incubated with the compounds followed by agonist challenge at the EC80 concentration. Data was normalized to the maximal and minimal response observed in the presence of EC80 ligand and vehicle. Compound activity was analyzed using CBIS data analysis suite ChemInnovation, CA). Percentage inhibition was calculated using the following formula: % Inhibition=100%×(1−(mean signal of test sample-mean signal of vehicle control)/(mean signal of EC80 control-mean signal of vehicle control)). Percentage inhibition was calculated at 10 concentrations in steps on a Log 3 scale ranging from […] to 5e-5 μM. The results were plotted for IC50 calculation.
Turning to `C[C@@H](O)[C@@H]1NC(=O)[C@H](CCCCN)NC(=O)[C@@H](Cc2ccc(C(N)=O)cc2)NC(=O)[C@H](Cc2ccc(O)cc2)NC(=O)[C@@H](NC(=O)[C@@H](N)Cc2ccc(Cl)cc2)CSSC[C@@H](C(=O)NC(Cc2ccc(O)cc2)C(N)=O)NC1=O` (stereo in doubt) [Compound 39, H-Cpa-cyclo[Cys- Tyr-D-(4- carbamoyl)Phe- Lys-Thr-Cys]- DTyr-NH2], the pIC50 – broadly, the IC50 on a negative log10 scale, so that one unit is a factor of ten – is less than 6.00. Consider `CC(O)[C@@H]1NC(=O)[C@H](CCCCN)NC(=O)[C@@H](Cc2ccc(C(N)=O)cc2)NC(=O)[C@H](Cc2ccc(O)cc2)NC(=O)[C@H](NC(=O)[C@@H](N)Cc2ccc(Cl)cc2)CNC(=O)SC[C@@H](C(=O)N[C@H](Cc2ccc(O)cc2)C(N)=O)NC1=O` (stereo in doubt) [Compound 61, H-Cpa-cyclo[Dap- Tyr-DPhe (4-CONH2)- Lys-Thr-Cys]- DTyr-NH2], for which the pIC50 was less than 6.00. `C[C@@H](O)[C@@H]1NC(=O)[C@H](CCCCN)NC(=O)[C@@H](Cc2ccc(C(N)=O)cc2)NC(=O)[C@H](Cc2ccc(O)cc2)NC(=O)[C@@H](NC(=O)[C@@H](N)Cc2ccc(Cl)cc2)CC=CC[C@@H](C(=O)N[C@H](Cc2ccc(O)cc2)C(N)=O)NC1=O` (stereo in doubt) [Compound 68]: the negative logarithm of the IC50 (pIC50) is less than 6.00. Take `CNCCCC[C@@H]1NC(=O)[C@@H](Cc2ccc(NC(=O)Nc3ccccc3)cc2)NC(=O)[C@H](Cc2ccc(O)cc2)NC(=O)[C@H](NC(=O)[C@@H](N)Cc2ccc(Cl)cc2)CSSC[C@@H](C(=O)NC(Cc2ccc(O)cc2)C(N)=O)NC(=O)[C@H]([C@@H](C)O)NC1=O` (stereo partly drawn) [Compound 25, H-Cpa-cyclo[D-Cys-Tyr-D-Phe(4-phenylureido)-Lys(N^ε-Me)-Thr-Cys]-D-Tyr-NH2] (H-[Phe(4-Cl)][dC]Y[dPhe(4-NH2)]([CO-NHPh])[Lys(Me)]TC[ξY]-NH2; disulfide 2-7): the negative-log IC50 (pIC50) is 8.63. The figure for `CC(=O)NCCCC[C@@H]1NC(=O)[C@@H](Cc2ccc(C(N)=O)cc2)NC(=O)[C@H](Cc2ccc(O)cc2)NC(=O)[C@H](NC(=O)[C@@H](N)Cc2ccc(Cl)cc2)CSSC[C@@H](C(=O)NC(Cc2ccc(O)cc2)C(N)=O)NC(=O)[C@H]([C@@H](C)O)NC1=O` (stereo partly drawn) [Compound 26, H-Cpa-cyclo[DCys- Tyr-D-(4- carbamoyl)Phe-(N- Acetyl)Lys-Thr-Cys]- DTyr-NH2] (H-[Phe(4-Cl)][dC]Y[dPhe(4-CONH2)]K(Ac)TC[ξY]-NH2; disulfide 2-7) is less than 6.00; for `C[C@@H](O)[C@@H]1NC(=O)[C@H](CCCCN)NC(=O)[C@@H](Cc2ccc(NC(=O)c3ccccc3)cc2)NC(=O)[C@H](Cc2ccc(O)cc2)NC(=O)[C@H](NC(=O)[C@@H](N)Cc2ccc(Cl)cc2)CSSC[C@@H](C(=O)NC(Cc2ccc(O)cc2)C(N)=O)NC1=O` (stereo partly drawn) [Compound 27, H-Cpa-cyclo[DCys- Tyr-D-(4- Benzamidophenyl) Phe-Lys-Thr- Cys]-DTyr-NH2] (H-[Phe(4-Cl)][dC]Y[dPhe(4-NH2)](Bz)KTC[ξY]-NH2; disulfide 2-7) it is 7.46; for `COc1ccc(NC(=O)Nc2ccc(C[C@H]3NC(=O)[C@H](Cc4ccc(O)cc4)NC(=O)[C@H](NC(=O)[C@@H](N)Cc4ccc(Cl)cc4)CSSC[C@@H](C(=O)N[C@H](Cc4ccc(O)cc4)C(N)=O)NC(=O)[C@H]([C@@H](C)O)NC(=O)[C@H](CCCCN)NC3=O)cc2)cc1` [Compound 28, H-Cpa-cyclo[DCys- Tyr-D-(4-(4- methoxyphenyl) ureido) Phe-Lys-Thr-Cys]- DTyr-NH2] (H-[Phe(4-Cl)][dC]Y[dPhe(4-NH2)]([CO-NH(4-MeO-phenyl)])KTC[dY]-NH2; disulfide 2-7) it is 6.98.

The compound `C[C@@H](O)[C@@H]1NC(=O)[C@H](CCCNC(=N)N)NC(=O)[C@@H](Cc2ccc(C(N)=O)cc2)NC(=O)[C@H](Cc2ccc(O)cc2)NC(=O)[C@H](NC(=O)[C@@H](N)Cc2ccc(Cl)cc2)CSSC[C@@H](C(=O)NC(Cc2ccc(O)cc2)C(N)=O)NC1=O` (stereo partly drawn) [Compound 29, H-Cpa-cyclo[DCys- Tyr-D-(4- carbamoyl)Phe-Arg- Thr-Cys]-DTyr-NH2] (H-[Phe(4-Cl)][dC]Y[dPhe(4-CONH2)]RTC[ξY]-NH2; disulfide 2-7) had a pIC50 of 6.40. The figure for `CNCCCC[C@@H]1NC(=O)[C@@H](CCCCNC(=O)c2cccnc2)NC(=O)[C@H](Cc2ccc(O)cc2)NC(=O)[C@H](NC(=O)[C@@H](N)Cc2ccc(Cl)cc2)CSSC[C@@H](C(=O)NC(Cc2ccc(O)cc2)C(N)=O)NC(=O)[C@H]([C@@H](C)O)NC1=O` (stereo partly drawn) [Compound 30, H-Cpa-cyclo[D-Cys-Tyr-D-Lys(N^ε-nicotinoyl)-Lys(N^ε-Me)-Thr-Cys]-D-Tyr-NH2] (H-[Phe(4-Cl)][dC]Y[dK](Nicotinoyl)[Lys(Me)]TC[ξY]-NH2; disulfide 2-7) is 6.75. With `CNCCCC[C@@H]1NC(=O)[C@@H](CCCNC(N)=O)NC(=O)[C@H](Cc2ccc(O)cc2)NC(=O)[C@H](NC(=O)[C@@H](N)Cc2ccc(Cl)cc2)CSSC[C@@H](C(=O)N[C@H](Cc2ccc(O)cc2)C(N)=O)NC(=O)[C@H]([C@@H](C)O)NC1=O` [Compound 31, H-Cpa-cyclo[DCys- Tyr-D-Cit- (N—Me)Lys-Thr- Cys]-DTyr-NH2] (H-[Phe(4-Cl)][dC]Y[dCit][Lys(Me)]TC[dY]-NH2; disulfide 2-7), the pIC50 is 7.15. The figure for `C[C@@H](O)[C@@H]1NC(=O)[C@H](CCCCN(C)C)NC(=O)[C@@H](Cc2ccc(C(N)=O)cc2)NC(=O)[C@H](Cc2ccc(O)cc2)NC(=O)[C@H](NC(=O)[C@@H](N)Cc2ccc(Cl)cc2)CSSC[C@@H](C(=O)NC(Cc2ccc(O)cc2)C(N)=O)NC1=O` (stereo partly drawn) [Compound 32, H-Cpa-cyclo[D-Cys-Tyr-D-Phe(4-carbamoyl)-Lys(N^ε-diMe)-Thr-Cys]-D-Tyr-NH2] (H-[Phe(4-Cl)][dC]Y[dPhe(4-CONH2)][Lys(Me2)]TC[ξY]-NH2; disulfide 2-7) is 8.61; for `CC(C)[C@@H]1NC(=O)[C@H](CCCCN)NC(=O)[C@@H](Cc2ccc(C(N)=O)cc2)NC(=O)[C@H](Cc2ccc(O)cc2)NC(=O)[C@H](NC(=O)[C@@H](N)Cc2ccc(Cl)cc2)CSSC[C@@H](C(=O)NC(Cc2ccc(O)cc2)C(N)=O)NC1=O` (stereo partly drawn) [Compound 33, H-Cpa-cyclo[DCys- Tyr-D-4- (carbamoyl)Phe-Lys- Val-Cys]-DTyr-NH2] (H-[Phe(4-Cl)][dC]Y[dPhe(4-CONH2)]KVC[ξY]-NH2; disulfide 2-7) it is 7.25; for `CC(C)(C)[C@@H]1NC(=O)[C@H](CCCCN)NC(=O)[C@@H](Cc2ccc(C(N)=O)cc2)NC(=O)[C@H](Cc2ccc(O)cc2)NC(=O)[C@H](NC(=O)[C@@H](N)Cc2ccc(Cl)cc2)CSSC[C@@H](C(=O)NC(Cc2ccc(O)cc2)C(N)=O)NC1=O` (stereo partly drawn) [Compound 34, H-Cpa-cyclo[DCys- Tyr-D-4- (carbamoyl)Phe-Lys- tBu-Gly-Cys]-DTyr- NH2] (H-[Phe(4-Cl)][dC]Y[dPhe(4-CONH2)]K[Tle]C[ξY]-NH2; disulfide 2-7) it is 7.36.

With `C[C@@H](O)[C@@H]1NC(=O)[C@H](CCCCN)NC(=O)[C@@H](Cc2ccc(C(N)=O)cc2)NC(=O)[C@H](Cc2ccccc2)NC(=O)[C@H](NC(=O)[C@@H](N)Cc2ccc(Cl)cc2)CSSC[C@@H](C(=O)NC(Cc2ccc(O)cc2)C(N)=O)NC1=O` (stereo partly drawn) [Compound 35, H-Cpa-cyclo[DCys- Phe-D-(4- carbamoyl)Phe-Lys- Thr-Cys]-DTyr-NH2] (H-[Phe(4-Cl)][dC]F[dPhe(4-CONH2)]KTC[ξY]-NH2; disulfide 2-7), the negative logarithm of the IC50 (pIC50) was 7.44. For `C[C@@H](O)[C@@H]1NC(=O)[C@H](CCCCN)NC(=O)[C@@H](Cc2ccc(C(N)=O)cc2)NC(=O)[C@H](Cc2ccc(Cl)cc2)NC(=O)[C@H](NC(=O)[C@@H](N)Cc2ccc(Cl)cc2)CSSC[C@@H](C(=O)NC(Cc2ccc(O)cc2)C(N)=O)NC1=O` (stereo partly drawn) [Compound 36, H-Cpa-cyclo[DCys- Cpa-D-(4- carbamoyl)Phe-Lys- Thr-Cys]-DTyr-NH2] (H-[Phe(4-Cl)][dC][Phe(4-Cl)][dPhe(4-CONH2)]KTC[ξY]-NH2; disulfide 2-7), the negative-log IC50 (pIC50) was 7.54. To `NCCCC[C@@H]1NC(=O)[C@@H](Cc2ccc(C(N)=O)cc2)NC(=O)[C@H](Cc2ccc(O)cc2)NC(=O)[C@H](NC(=O)[C@@H](N)Cc2ccc(Cl)cc2)CSSC[C@@H](C(=O)NC(Cc2ccc(O)cc2)C(N)=O)NC(=O)[C@H](CO)NC1=O` (stereo partly drawn) [Compound 37, H-Cpa-cyclo[DCys- Tyr-D-(4- carbamoyl)Phe-Lys- Ser-Cys]-DTyr-NH2] (H-[Phe(4-Cl)][dC]Y[dPhe(4-CONH2)]KSC[ξY]-NH2; disulfide 2-7) belongs 7.97. For `COc1ccc(C[C@@H]2NC(=O)[C@H](NC(=O)[C@@H](N)Cc3ccc(Cl)cc3)CSSC[C@@H](C(=O)NC(Cc3ccc(O)cc3)C(N)=O)NC(=O)[C@H]([C@@H](C)O)NC(=O)[C@H](CCCCN)NC(=O)[C@@H](Cc3ccc(C(N)=O)cc3)NC2=O)cc1` (stereo partly drawn) [Compound 38, H-Cpa-cyclo[DCys- 4-OMe-Phe-D-(4- carbamoyl)Phe-Lys- Thr-Cys]-DTyr-NH2] (H-[Phe(4-Cl)][dC]Y(Me)[dPhe(4-CONH2)]KTC[ξY]-NH2; disulfide 2-7), the pIC50 was 7.61.

With `C[C@@H](O)[C@@H]1NC(=O)[C@H](CCCCN)NC(=O)[C@@H](Cc2ccc(C(N)=O)cc2)NC(=O)[C@H](Cc2ccc(O)cc2)NC(=O)[C@H](NC(=O)[C@@H](N)Cc2ccc(Cl)cc2)CSSC[C@@H](C(=O)NC(Cc2ccccc2)C(N)=O)NC1=O` (stereo partly drawn) [Compound 40, H-Cpa-cyclo[DCys- Tyr-D-(4- carbamoyl)Phe-Lys- Thr-Cys]-DPhe-NH2] (H-[Phe(4-Cl)][dC]Y[dPhe(4-CONH2)]KTC[ξF]-NH2; disulfide 2-7), the negative-log IC50 (pIC50) is 7.79.
